This note sets out measurements from US20220249343A1, “COSMETIC COMPOSITION INCLUDING 5-BENZYLAMINOSALICYLIC ACID DERIVATIVE, AND TOPICAL USE THEREOF” (GNT PHARMA CO., LTD., priority 2019, published 2022).

The data set has as its system human skin. As to the kind of experiment: Safety assessment for human skin: patch test. In kind it is in vivo. The conditions noted are these: human volunteers. Here is the method: Safety of Compound 2 was assessed by a patch test of 33 human volunteers. At this time, a patch treated with a composition containing 0.0544 mg/ml of compound 2 was attached to the test site, after 24 hours, the patch was removed and the location was marked. After 1 hour, a degree of reactivity was determined and recorded.
The skin reactivity was calculated by multiplying the average of evaluated values for 33 subjects by 25, while the skin irritation index was determined by dividing the above calculated value by the number of evaluations.
The degree of skin irritation of the test substance was determined with reference to the skin irritation index table (Table 1).

As to `O=C(O)c1cc(NCCc2ccc(C(F)(F)F)cc2)ccc1O` [Compound 2], the “adverse skin reactions during the period of use” value was “no reports of specific adverse skin reactions” and the “findings on physical examination by a dermatologist” value is given as “no abnormal findings were observed”.
